In PubChem BioAssay (NCI) one finds TGI and GI50 data, which are given here for 14 compounds.

Values joined by “and” are separate entries in the source; they are usually repeats but may differ in a detail not shown here. Identical values can stand only once.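 In this assay, cells in 96-well plates receive the compound at five concentrations for 48 hours. Endpoints are linearly interpolated between the surrounding concentrations. GI50 marks 50% less growth. TGI marks complete inhibition of growth.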

Some test systems named below: HCC-2998 colon; SK-OV-3 ovarian; SF-295 CNS; OVCAR-3 ovarian; K-562 leukemia; SF-539 CNS; SK-MEL-2 melanoma; OVCAR-4 ovarian; SK-MEL-28 melanoma.
Holding throughout (assay): NCI tumour cell line growth inhibition, 48 h

As for `COC(=O)/C(C)=C/[N+](=O)[O-]`, the TGI in the assay on HCC-2998 colon stood at 32.1 µM; in the assay on SK-OV-3 ovarian, 33.4 µM; in the assay on SF-295 CNS it was 30.3 µM; in the assay on OVCAR-3 ovarian, 29.6 µM; in the assay with K-562 leukemia, 13.2 µM; in the assay with SF-539 CNS it was 33.2 µM. The values for the TGI in the assay on SK-MEL-2 melanoma and in the assay with OVCAR-4 ovarian were 38.7 µM and 33.5 µM, respectively.
With `C[C@@]12CCCc3coc(c31)C(=O)c1cc3c(cc12)C(=O)C=CC3=O`, the GI50 in the assay on HCC-2998 colon was more than 1 µM; in the assay on SK-OV-3 ovarian, more than 100 µM; with OVCAR-3 ovarian, more than 1 µM; with K-562 leukemia, more than 1 µM; in the assay on SF-539 CNS, less than 1 µM; in the assay on SK-MEL-2 melanoma it was more than 1 µM. For the same compound, the GI50 with OVCAR-4 ovarian is more than 1 µM. Further, the TGI in the assay with HCC-2998 colon was > 1 µM and 69.7 µM; in the assay on SK-OV-3 ovarian, more than 100 µM; in the assay with SF-295 CNS, more than 1 µM; with OVCAR-3 ovarian, > 1 µM and 41.8 µM; in the assay with SK-MEL-28 melanoma, more than 1 µM; with K-562 leukemia, > 1 µM and 78.2 µM. The TGI is > 1 µM and 30.1 µM in the assay on SF-539 CNS; > 1 µM and 29 µM in the assay on SK-MEL-2 melanoma; > 1 µM and 28.9 µM in the assay with OVCAR-4 ovarian.
In the case of `CC1(C)O/C(=C\c2ccccc2)C(=O)/C(=C/c2ccccc2)O1`, the TGI in the assay on SK-OV-3 ovarian, with SF-295 CNS, with OVCAR-3 ovarian, in the assay with SK-MEL-28 melanoma, with K-562 leukemia and in the assay with SF-539 CNS was more than 100 µM each time. Besides, the TGI in the assay with SK-MEL-2 melanoma is 56.7 µM; in the assay on OVCAR-4 ovarian, more than 100 µM.
As to `O=S1OC2(c3ccccc3-c3ccccc32)c2ccccc21` (stereo unspecified), the TGI with HCC-2998 colon, in the assay on SK-OV-3 ovarian, in the assay on SF-295 CNS, with OVCAR-3 ovarian, in the assay with SK-MEL-28 melanoma and in the assay on K-562 leukemia was more than 100 µM in each case. Further, the TGI in the assay with SF-539 CNS and with OVCAR-4 ovarian was more than 100 µM each time.
With `Cc1cc(C)c(C2[C@H]3C(=O)N(c4ccc(Cc5ccc(N6C(=O)[C@@H]7ON(c8ccccc8)C(c8c(C)cc(C)cc8C)[C@@H]7C6=O)cc5)cc4)C(=O)[C@H]3ON2c2ccccc2)c(C)c1` (stereo partly specified), the TGI with HCC-2998 colon, in the assay with SK-OV-3 ovarian, with SF-295 CNS, with OVCAR-3 ovarian, in the assay with SK-MEL-28 melanoma and with K-562 leukemia was more than 100 µM each time. The TGI in the assay with SF-539 CNS, in the assay with SK-MEL-2 melanoma and with OVCAR-4 ovarian was more than 100 µM each time.
Consider `COC(=O)CCC(=O)CC1CC(=O)C2CCCN12` (stereo unspecified), for which the TGI in the assay with HCC-2998 colon, in the assay with SK-OV-3 ovarian, in the assay with SF-295 CNS, in the assay with OVCAR-3 ovarian, with SK-MEL-28 melanoma and with K-562 leukemia was more than 100 µM each time. For the same compound, the TGI in the assay on SF-539 CNS, with SK-MEL-2 melanoma and in the assay with OVCAR-4 ovarian was more than 100 µM throughout.
Take `CC12CCCCC1(C)C2Sc1ccccc1` (stereo unspecified): the TGI in the assay on HCC-2998 colon was more than 100 µM; in the assay with SK-OV-3 ovarian, more than 100 µM; in the assay with SF-295 CNS, more than 100 µM; with OVCAR-3 ovarian, more than 100 µM; with SK-MEL-28 melanoma, more than 100 µM; with K-562 leukemia, 19.9 µM. Moreover, the TGI in the assay on SF-539 CNS is more than 100 µM; in the assay with SK-MEL-2 melanoma, 50.7 µM; in the assay with OVCAR-4 ovarian, more than 100 µM.
With `CC1=NN(C(=O)CC(=O)N(C(=O)c2ccccc2Cl)c2ccc(C)cc2)C(=O)C1N=Nc1ccc([N+](=O)[O-])cc1` (stereo unspecified), the TGI with HCC-2998 colon was more than 100 µM; with SK-OV-3 ovarian, 69.6 µM; in the assay on SF-295 CNS it was more than 100 µM; in the assay on OVCAR-3 ovarian it was more than 100 µM; with SK-MEL-28 melanoma, more than 100 µM; in the assay with K-562 leukemia, more than 80.8 µM. Besides, the TGI with SF-539 CNS is 51.4 µM; with SK-MEL-2 melanoma, more than 100 µM; in the assay with OVCAR-4 ovarian, more than 100 µM.
With `Nc1nc(CCl)nc(Nc2ccccc2)n1`, the TGI in the assay with HCC-2998 colon came to 31.7 µM; in the assay on SF-295 CNS, 81.7 µM; with OVCAR-3 ovarian it was 32.8 µM; in the assay on SK-MEL-28 melanoma, 33.2 µM; with SF-539 CNS, 70.7 µM; in the assay on SK-MEL-2 melanoma, 44.1 µM. In the assay on OVCAR-4 ovarian, this compound registered a TGI of 32.1 µM.
For `C[n+]1cc(C(O)c2ccc3c(c2)OCO3)c2ccccc2c1` (stereo unspecified), the TGI with HCC-2998 colon, in the assay with SK-OV-3 ovarian, in the assay on SF-295 CNS, in the assay on OVCAR-3 ovarian, in the assay on K-562 leukemia and with SF-539 CNS was more than 100 µM in each case. For the same compound, in the assay with SK-MEL-2 melanoma, the TGI was found to be 96.1 µM.
For `CN(C)C(=S)/N=c1\ss/c(=N\C(=S)N(C)C)n1-c1ccc(Cl)c(Cl)c1`, the TGI with HCC-2998 colon, in the assay with SK-OV-3 ovarian, in the assay on SF-295 CNS, with OVCAR-3 ovarian, in the assay with SK-MEL-28 melanoma and with K-562 leukemia was more than 100 µM in each case. Besides, the TGI in the assay on SF-539 CNS, with SK-MEL-2 melanoma and in the assay with OVCAR-4 ovarian was more than 100 µM in each case.
As for `COc1cc(C)c2c(c1C)OC(=O)c1c(C)c(Cl)c(O)c(C=O)c1O2`, the TGI in the assay with HCC-2998 colon came out at 47.5 µM; in the assay on SK-OV-3 ovarian it was 65 µM; in the assay on OVCAR-3 ovarian, 9.5 µM; in the assay on K-562 leukemia, 45.6 µM; with SF-539 CNS, 26.6 µM.
As for `Nc1ccn(C2(CO)C=C(CO)C(O)C2O)c(=O)n1` (stereo unspecified), the TGI in the assay with HCC-2998 colon, in the assay with SK-OV-3 ovarian, with OVCAR-3 ovarian, in the assay with SK-MEL-28 melanoma, with K-562 leukemia and in the assay on SF-539 CNS was more than 25.8 µM in each case. Further, the TGI in the assay on SK-MEL-2 melanoma and with OVCAR-4 ovarian was more than 25.8 µM each time.
As to `O=C(CSC(c1ccccc1)c1ccccc1)N/N=C/c1ccc(Cl)cc1Cl`, the GI50 in the assay on HCC-2998 colon is 26.9 µM; in the assay on SF-295 CNS, 33.6 µM; with OVCAR-3 ovarian it was 29.2 µM; in the assay on K-562 leukemia it was 19 µM; in the assay with SF-539 CNS it was 57.7 µM; with SK-MEL-2 melanoma, 18.4 µM. In the assay with OVCAR-4 ovarian, the GI50 is 38.8 µM. For the same compound, the TGI with HCC-2998 colon was 71 µM; in the assay with SF-295 CNS, 90.8 µM; with OVCAR-3 ovarian, 83 µM; in the assay with K-562 leukemia it was 96.6 µM; in the assay with SF-539 CNS, more than 100 µM; in the assay on SK-MEL-2 melanoma, 55.8 µM. Besides, the TGI with OVCAR-4 ovarian is more than 100 µM.
